Reference: US8357659B2, “Method of treating pain or itching with APETx2 peptide toxin” (priority 2008, dated 2013)

Legend:
[1] = tested on: ASIC type current of cutaneous neurons of the spinal ganglia; assay: Whole cell patch clamp of native ASIC currents in cutaneous neurons of the spinal ganglia; assay type: cell-based, rat; conditions: pH 6.6; FIG. 1C
Protocol: The neurons of the dorsal root ganglion (spinal ganglia or DRG) innervating the skin were labelled by subcutaneous injections of 5×1 μl of Dil fluorescent dye (5% DMSO, Molecular Probes) in the dorsal side of the rats' hind paws. The dye was injected two weeks before the rats were sacrificed in order to prepare a primary culture of dorsal root ganglion.
The lumbar dorsal root ganglia L3-L6 of Wistar rats (8-11 weeks) were dissected bilaterally and separated enzymatically with 0.1% collagenase. The cells were subsequently plated on 35 mm Petri dishes covered with collagen and cultured at 37° C. (95% air/5% CO2) in DMEM medium containing 5% of foetal calf serum. The electrophysiological experiments were performed 1 to 8 days after seeding.
The whole cell configuration of the patch clamp method was used ([ref. 48]) in order to measure the membrane currents (imposed voltage) or the membrane potentials (imposed current). The recordings were performed at ambient temperature using an RK-400 amplifier (Bio-Logic Science Instruments) with a 3 kHz low-pass filter (Krohn-Hite). The data were sampled at 10 kHz, digitised using a Digidata 1322A A-D/D-A converter (Axon Instruments) and recorded on a hard disk using pClamp software (version 9.2.0.11, Axon Instruments). The recording probes (1-4 MOhms) contained (in mM): 135 KCl, 2.5 Na2-ATP, 2 MgCl2, 2.1 CaCl2, 5 EGTA, 10 HEPES (pH 7.25 with KOH). Various different buffers and drugs of interest were added to the transfected cells considered individually using an internally developed microinfusion system controlled by microelectrovalves (Sirai, Italy) allowing rapid changes of solution. The control bath solution contained (in mM): 145 NaCl, 5 KCl, 2 MgCl2, 2 CaCl2, 10 HEPES (pH 7.4 with NaOH). The MES medium was used instead of the HEPES medium in order to buffer the solution at a pH ranging from 6 to 5, and the ASIC currents were induced by rapid changes of a control solution at pH 7.4 to an acid test solution using the microinfusion system. For the experiments conducted on the DRG neurons, glucose (10 mM) was added to the control bath solution. Hypertonic conditions were obtained by adding mannitol or sucrose to the external bath solutions, as indicated in the text.

[2] = target: T1, ASIC1a (Rattus norvegicus, UniProt P55926); conditions: cited from earlier work
T1 sequence (P55926 1-526): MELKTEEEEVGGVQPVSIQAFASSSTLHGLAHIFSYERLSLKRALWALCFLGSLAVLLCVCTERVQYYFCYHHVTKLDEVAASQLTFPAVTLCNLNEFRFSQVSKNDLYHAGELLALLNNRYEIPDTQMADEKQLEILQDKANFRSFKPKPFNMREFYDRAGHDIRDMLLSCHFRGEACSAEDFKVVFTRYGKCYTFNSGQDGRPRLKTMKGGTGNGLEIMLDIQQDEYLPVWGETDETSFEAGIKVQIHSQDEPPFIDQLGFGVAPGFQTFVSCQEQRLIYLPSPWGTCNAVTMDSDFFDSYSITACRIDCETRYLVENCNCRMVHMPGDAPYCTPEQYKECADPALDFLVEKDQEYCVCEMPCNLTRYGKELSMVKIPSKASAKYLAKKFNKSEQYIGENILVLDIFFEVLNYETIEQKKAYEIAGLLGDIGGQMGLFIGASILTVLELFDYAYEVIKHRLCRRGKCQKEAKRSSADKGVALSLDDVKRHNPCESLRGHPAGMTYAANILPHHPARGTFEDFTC

[3] = target: T2, heteromer ASIC2a+3 (Rattus norvegicus, UniProt O35240+Q62962); conditions: cited from earlier work
T2 sequence (Q62962 1-512): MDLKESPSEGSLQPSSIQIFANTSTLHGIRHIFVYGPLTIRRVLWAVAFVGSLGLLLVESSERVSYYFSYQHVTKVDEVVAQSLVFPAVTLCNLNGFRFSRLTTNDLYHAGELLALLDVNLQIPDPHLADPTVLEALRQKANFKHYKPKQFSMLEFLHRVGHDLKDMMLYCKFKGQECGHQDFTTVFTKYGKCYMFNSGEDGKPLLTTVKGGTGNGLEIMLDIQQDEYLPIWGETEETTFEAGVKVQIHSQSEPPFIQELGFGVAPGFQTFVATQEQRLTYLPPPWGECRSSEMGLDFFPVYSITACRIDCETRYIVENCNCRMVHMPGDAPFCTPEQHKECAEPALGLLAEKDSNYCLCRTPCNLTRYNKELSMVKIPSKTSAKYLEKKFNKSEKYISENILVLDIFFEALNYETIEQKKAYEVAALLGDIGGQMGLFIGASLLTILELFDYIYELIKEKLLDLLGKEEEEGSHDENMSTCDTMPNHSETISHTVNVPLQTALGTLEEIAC
T2 sequence (O35240 1-533): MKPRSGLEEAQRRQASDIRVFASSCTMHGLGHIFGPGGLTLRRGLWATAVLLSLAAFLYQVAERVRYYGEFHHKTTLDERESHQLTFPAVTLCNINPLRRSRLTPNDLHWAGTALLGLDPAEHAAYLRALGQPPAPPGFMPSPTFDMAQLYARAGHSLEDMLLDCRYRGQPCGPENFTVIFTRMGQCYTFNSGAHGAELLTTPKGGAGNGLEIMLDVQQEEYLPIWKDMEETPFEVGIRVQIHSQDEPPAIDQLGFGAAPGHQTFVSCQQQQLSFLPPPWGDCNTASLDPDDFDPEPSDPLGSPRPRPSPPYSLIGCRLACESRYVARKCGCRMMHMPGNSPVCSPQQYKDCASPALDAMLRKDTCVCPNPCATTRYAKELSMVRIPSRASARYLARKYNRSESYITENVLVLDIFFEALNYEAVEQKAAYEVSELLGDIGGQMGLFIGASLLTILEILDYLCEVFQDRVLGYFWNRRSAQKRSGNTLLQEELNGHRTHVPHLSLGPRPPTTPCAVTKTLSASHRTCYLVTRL

For “peptide of 42 amino acids (SEQ ID NO: 3), three disulphide bonds, from sea anemone Anthopleura elegantissima; blocks ASIC3 [APETx2]”, the “sensitivity of the native ASIC currents to the toxin” value [1] is listed as “partial sensitivity”, the “effect on ASIC1a isoform” value [2] is listed as “does not have any effect” and the “effect on the heteromer ASIC2a+3” value [3] is listed as “does not have any effect”.
